Patent publication US20030180292A1, “Treatment of B cell malignancies using anti-CD40L antibodies in combination with anti-CD20 antibodies and/or chemotherapeutics and radiotherapy” (IDEC PHARMACEUTICALS, priority 2002, published 2003)

How the values were obtained:
DHL-4 cells = test: Adriamycin (ADM) cytotoxicity of DHL-4 cells with sCD40L and IDEC-131, Alamar Blue assay; assay type: cell-based; conditions: 5 days
Description: Initially, the minimum concentration of ADM cytotoxic to DHL-4 cells was determined by exposing DHL-4 cells for 4 hours to different concentrations of ADM. The cell cytotoxicity of DHL-4 cells after 5 days in culture was measured by Alamar Blue, a dye-reduction assay by live cells (see Gazzano-Santoro et al., J. Immunol. Meth. 202: 163-171 (1997)). Briefly, 1×10^5 DHL-4 cells in growth medium (RMPI-1640 plus 10% Fetal Calf Serum) were incubated with varying concentrations of ADM (1×10^−6 M to 1×10^−8 M) in cell culture tubes at 37° C. for 4 hours. […] Following incubation, plates were cooled by incubating at room temperature for 10 minutes on a shaker, and the intracellular reduction of the dye was determined. Fluorescence was read using a 96-well fluorometer with excitation at 530 nm and emission at 590 nm. The results are expressed as relative fluorescence units (RFU). The percentage of cytotoxicity was calculated as follows: […]
DHL-4 cells (0.5×10^6 cells/ml) were incubated in the presence of 10 μg/ml of soluble CD40L (sCD40L, P. A. Brams, E. A. Padlan, K. Hariharan, K. Slater, J. Leonard, R. Noelle, and R. Newman, “A humanized anti-human CD154 monoclonal antibody blocks CD154-CD40 mediated human B cell activation,” (manuscript submitted)) for 1 hour at 37° C. […] After 5 days, the cytotoxicity was measured by Alamar Blue dye-uptake assay, as described.

[1] = test system: HLA-DR expression on CD19+ CLL cells; test: HLA-DR expression on CD19+ CLL cells by flow cytometry; assay type: cell-based, human; conditions: for HLA-DR+ % Positive / HLA-DR+ MFI: CD19+ B-cells, 5 μg/ml CD40L
Description: To determine whether the CD40L-CD40 signal transduction pathway is intact, CLL cells from CLL patients were cultured (5×10^5 cells/ml) with and without 5 μg/ml of CD40L at 37° C. At 48 hours and 144 hours, the class II molecule, HLA-DR expression, was determined on […] cells by flow cytometry using standard procedures. Briefly, cultured lymphocytes were harvested at different time points and analyzed for surface expression of molecules using antibodies coupled to either fluorescein (FITC) or phycoerythrin (PE) for single or double staining using a FACScan (Becton-Dickinson) flow cytometer. To stain for flow cytometry, 1×10^6 cells in culture tubes were incubated with appropriate antibodies as follows: anti-CD45-FITC to gate lymphocyte population on a scatter plot; anti-CD19-PE (Pharmingen. Cat. #30655) or anti-CD20-FITC (Pharmingen; Cat. #33264) antibodies to determine the CD19^+ and/or […] B-cells; anti-CD3-FITC antibodies (Pharmingen; Cat. #30104) to gate-off the T cells; anti-CD19-RPE and anti-HLA-DR-FITC antibodies (Pharmingen; Cat. #32384) to determine the Pclass II expression on CD19^+ cells. Cells were washed once by centrifugation (at 200×g, for 6 min.) with 2 ml cold PBS and incubated with antibody for 30 min. on ice, after which the cells washed once, fixed in 0.5% paraformaldehyde and stored at 4° C. until analyzed. Flow cytometry data was acquired on FACsan and analyzed using WinList software (Verity Software House). The machine was set to autogating to allow examination of quadrants containing cells that were single stained with either RPE or FITC, unstained or doubly stained.

B-CLL cells [2] = test: Survival of B-CLL cells in culture, Trypan blue dye exclusion; assay type: cell-based, human; conditions: for % Viability (+) CD40L: sCD40L 5 μg/ml
Description: Peripheral blood mononuclear cells (PBMC) were isolated from a CLL patient's blood using a Ficoll-Hypaque gradient centrifulation. Viability was determined by Tryan blue dye exclusion and was >98%. […] CLL cells (PBMC) were cultured in CLL growth medium (e.g. RPMI-1640 medium supplemented with 5% FCS or 2% of autologous donor plasma, supplemented with 2 mM L-Glutamine and 100 U/ml Penicillin-Streptomycin). In addition. for some experiments, CD19^+ B-cells were purified using CD19^+ Dynabeads™ as per manufacture's instructions (Dynal, Cat. #111.03/111.04) and cultured as above. CLL or purified B-CLL cells cultured in growth medium mostly under went spontaneous apoptotic cell death. […] Table II indicates the cell viability of CD19^+ B-CLL cells grown in the presence or absence of sCD40L (5 μg/ml) at different time points and indicates the longer survival of CLL cells. B-CLL cells from Patient #1 cultured with sCD40L had ≧60% viability for greater than 2 weeks, whereas cells grown in the absence of sCD40L had less than 10% viability.

B-CLL cells [3] = test: Growth and survival of B-CLL cells after 7 days in culture, Alamar Blue assay; assay type: cell-based, human; conditions: cultures with sCD40L
Description: Cells in one tube were mixed with sCD40L (5 μl/ml) in equal volume of growth medium, whereas the other tube was incubated with equal volume of growth medium as control. […] Seven days later, cell survival/death in culture was determined by Alamar Blue assay, as described above.

| Compound | cytotoxicity to DHL-4 cells (in words) (DHL-4 cells; exposed to ADM in the absence of sCD40L) | HLA-DR+ % Positive ([1]; 48 hrs) [%] | HLA-DR+ MFI ([1]; 48 hrs) | HLA-DR+ % Positive ([1]; 144 hrs) [%] | HLA-DR+ MFI ([1]; 144 hrs) | HLA-DR expression on B-CLL cells (in words) ([1]; cultured in the presence of sCD40L vs not) | survival of DHL-4 cells after ADM treatment (in words) (DHL-4 cells; sCD40L 10 μg/ml, ADM 2×10^−7 M-4×10^−8 M for 4 hours) | % Viability (+) CD40L (B-CLL cells [2]; B-CLL Patient #1, 0 Hours) | % Viability (+) CD40L (B-CLL cells [2]; B-CLL Patient #1, 48 Hours) [%] | % Viability (+) CD40L (B-CLL cells [2]; B-CLL Patient #1, 96 Hours) [%] | % Viability (+) CD40L (B-CLL cells [2]; B-CLL Patient #1, 144 Hours) [%] | % Viability (+) CD40L (B-CLL cells [2]; B-CLL Patient #2, 0 Hours) | % Viability (+) CD40L (B-CLL cells [2]; B-CLL Patient #2, 72 Hours) [%] | % Viability (+) CD40L (B-CLL cells [2]; B-CLL Patient #2, 96 Hours) [%] | % Viability (+) CD40L (B-CLL cells [2]; B-CLL Patient #2, 144 Hours) [%] | viability of B-CLL cells cultured with sCD40L (B-CLL cells [2]; Patient #1, for greater than 2 weeks) [%] | viability of CLL or purified B-CLL cells in culture (in words) (B-CLL cells [2]; cultured in the presence of sCD40L) | cell survival of B-CLL cells (in words) (B-CLL cells [3]) |
| --- | --- | --- | --- | --- | --- | --- | --- | --- | --- | --- | --- | --- | --- | --- | --- | --- | --- | --- |
| COc1cccc2c1C(=O)c1c(O)c3c(c(O)c1C2=O)C[C@@](O)(C(=O)CO)C[C@@H]3O[C@H]1C[C@H](N)[C@H](O)[C@H](C)O1 [ADM, adriamycin] | increased cytotoxicity |  |  |  |  |  |  |  |  |  |  |  |  |  |  |  |  |  |
| sCD40L: soluble CD40L |  | 88 | 101 | 95 | 2943 | higher level of HLA-DR expression | prolonged survival | ≧90% | 90 | 77 | 72 | ≧90% | 72 | 65 | 51 | ≥ 60 | extended their viability | cell survival |
